Data on 74 molecules can be found in patent US7737155B2, “Nitrogen-containing heterocyclic compounds and methods of use thereof” (Schering Corporation, priority 2005, dated 2010).

pEC50: −log10 of the molar value. A value given as a limit tells only on which side of the number the result lay.

Chain of recombinant human nicotinic acid receptor (NAR) (Q8TDS4 whole entry): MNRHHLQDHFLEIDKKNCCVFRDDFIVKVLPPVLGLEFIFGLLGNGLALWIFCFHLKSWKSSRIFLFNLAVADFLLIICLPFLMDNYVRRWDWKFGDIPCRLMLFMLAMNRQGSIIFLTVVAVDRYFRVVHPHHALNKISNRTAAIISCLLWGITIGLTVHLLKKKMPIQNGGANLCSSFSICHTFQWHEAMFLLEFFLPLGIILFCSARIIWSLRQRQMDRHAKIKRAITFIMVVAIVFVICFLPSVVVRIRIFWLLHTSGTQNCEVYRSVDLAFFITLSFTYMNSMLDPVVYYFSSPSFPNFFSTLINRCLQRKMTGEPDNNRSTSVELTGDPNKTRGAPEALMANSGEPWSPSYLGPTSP

The first assay concerns the target recombinant human nicotinic acid receptor (NAR) (Homo sapiens, UniProt Q8TDS4). The assay can be described thus: Nicotinic Acid Receptor Assay: inhibition of forskolin-stimulated cAMP accumulation in CHO cells (MesoScale Discovery cAMP kit). The assay is classed as cell-based. To be noted: CHO cells expressing recombinant human NAR; forskolin-stimulated cAMP; read-out: NA EC50 camp. The method, then:
The nicotinic acid receptor agonist activity of the inventive compounds was determined by following the inhibition of forskolin-stimulated cAMP accumulation in cells using the MesoScale Discovery cAMP detection kit following the manufacture's protocol. Briefly, Chinese Hamster Ovary (CHO) cells expressing recombinant human nicotinic acid receptor (NAR) were harvested enzymatically, washed 1× in phosphate buffered saline (PBS) and resuspended in PBS containing 0.5 mM IBMX at 3×10^6 cells/mL. Ten μL of cell suspension was added to each well of a 384-well plate which contained 10 μL of test compounds. Test compounds were diluted with PBS containing 6 μM of forskolin. Plates were incubated for 30 minutes at room temperature after the addition of cells. Lysis buffer containing cAMP-Tag was added to each well (10 μL/well) as per the manufacturer's protocol. Plates were then incubated from 45 minutes to overnight. Prior to reading, 10 μL of read buffer was added to each well, and the plate was read in a Sector 6000 plate imager. The signal was converted to cAMP concentration using a standard curve run on each plate.
In general terms: Changes in cAMP serve as a functional read-out for many G protein-coupled receptors.
Turning to `CCc1cc(=O)oc2nc(OCc3snnc3-c3ccccc3)[nH]c(=O)c12` [Compound 532], the negative logarithm of the EC50 (pEC50) was 6.00 to 7.00. As for `CCc1cc(=O)oc2nc(OC(C)c3ccccc3C(F)(F)F)[nH]c(=O)c12` (stereo not drawn) [Compound 508], the pEC50 was less than 6.00. Take `CCc1cc(=O)oc2nc(OCCN3CCCC3=O)[nH]c(=O)c12` [Compound 592]: the negative logarithm of the EC50 (pEC50) was 6.00 to 7.00. Regarding `CCc1cc(=O)oc2nc(OCC(=O)c3ccccc3)[nH]c(=O)c12` [Compound 603], the pEC50 is 6.00 to 7.00.

Regarding `CCc1cc(=O)oc2nc(OCc3ccccc3-c3ccc(F)cc3)[nH]c(=O)c12` [Compound 510], the pEC50 was less than 6.00.

As to `O=c1cc(Cc2ccccc2)c2c(=O)[nH]c(OCc3ccccc3F)nc2o1` [Compound 616], the negative-log EC50 (pEC50) was 6.00 to 7.00. The same measure, in the same setting: the figure for `CCc1cc(=O)oc2nc(OCCOC(C)C)[nH]c(=O)c12` [Compound 595] is 6.00 to 7.00; for `CC#CCCc1cc(=O)oc2[nH]c(=O)[nH]c(=O)c12` [Compound 217] it is less than 6.00. Same read-out and setting: the figure for `CCc1cc(=O)oc2nc(OCc3cccc(-c4cccc(OC)c4)c3)[nH]c(=O)c12` [Compound 561] is 6.00 to 7.00. With `CCc1cc(=O)oc2nc(OCc3nn(-c4ccccc4)nc3C)[nH]c(=O)c12` [Compound 535], the negative logarithm of the EC50 (pEC50) was 6.00 to 7.00.

In the case of `CCc1cc(=O)oc2nc(OCCOc3ccccc3F)[nH]c(=O)c12` [Compound 614], the pEC50 was 6.00 to 7.00.

Regarding `O=c1[nH]c(=O)c2c(CCCC3CCC3)cc(=O)oc2[nH]1` [Compound 286], the negative-log EC50 (pEC50) is 7.00 to 12.00.

For `CCc1cc(=O)oc2nc(OCC(N)=O)[nH]c(=O)c12` [Compound 582], the pEC50 was 6.00 to 7.00.

Regarding `C#CCCCCc1cc(=O)oc2[nH]c(=O)[nH]c(=O)c12` [Compound 226], the pEC50 is 7.00 to 12.00. Consider `CCc1cc(=O)oc2nc(OCC(C)(O)c3ccccc3)[nH]c(=O)c12` (stereo not drawn) [Compound 599], for which the pEC50 is 6.00 to 7.00. On to `CC1(CCCc2cc(=O)oc3[nH]c(=O)n(C4CCC4)c(=O)c23)CC1` [Compound 285], for which the negative-log EC50 (pEC50) is 6.00 to 7.00. `CCc1cc(=O)oc2nc(OCC3CCCO3)[nH]c(=O)c12` (stereo not drawn) [Compound 601]: the pEC50 is less than 6.00. In the case of `CCc1cc(=O)oc2nc(OCC3CCCCO3)[nH]c(=O)c12` (stereo not drawn) [Compound 593], the pEC50 was less than 6.00. As to `CCc1cc(=O)oc2nc(OCC#CC(CC)OC)[nH]c(=O)c12` (stereo not drawn) [Compound 669], the negative logarithm of the EC50 (pEC50) is 6.00 to 7.00. Consider `CCOC(=O)NOc1nc2oc(=O)cc(CCC3CCC3)c2c(=O)[nH]1` [Compound 691], for which the pEC50 is 7.00 to 12.00.

Turning to `O=c1[nH]c(=O)c2c(CC3Cc4ccccc4C3)cc(=O)oc2[nH]1` [Compound 202], the negative-log EC50 (pEC50) was 6.00 to 7.00.

Turning to `CC1CC(c2cc(=O)oc3[nH]c(=O)[nH]c(=O)c23)C1` (stereo not drawn) [Compound 296], the pEC50 was 6.00 to 7.00.

Turning to `CCc1cc(=O)oc2nc(OCc3ccc4c(c3)nnn4C)[nH]c(=O)c12` [Compound 543], the negative-log EC50 (pEC50) is 6.00 to 7.00. Still for that read-out and setting: the figure for `CCc1cc(=O)oc2nc(OCC#CC(C)O)[nH]c(=O)c12` (stereo not drawn) [Compound 644] is 7.00 to 12.00. The same measure, in the same setting: the figure for `CCCC/C=C/c1c(CC)c2c(=O)[nH]c(=O)[nH]c2oc1=O` [Compound 214] is less than 6.00; for `C=COCCOc1nc2oc(=O)cc(CC)c2c(=O)[nH]1` [Compound 581] it is less than 6.00; for `CCc1cc(=O)oc2nc(OCc3cc(-c4ccccc4)oc3C)[nH]c(=O)c12` [Compound 542] it is less than 6.00. On the same count and under the same terms, the figure for `CCc1cc(=O)oc2nc(OCc3c(C)noc3-c3ccccc3)[nH]c(=O)c12` [Compound 531] is 6.00 to 7.00; for `O=C(OCc1ccccc1)N1CCC(Cc2cc(=O)oc3[nH]c(=O)[nH]c(=O)c23)C1` (stereo not drawn) [Compound 233] it is less than 6.00; for `CCOC(=O)c1cccc(-c2ccccc2COc2nc3oc(=O)cc(CC)c3c(=O)[nH]2)c1` [Compound 547] it is 6.00 to 7.00. Take `O=c1[nH]c(=O)c2c(CCC3CCC3)c(-c3ccccc3)c(=O)oc2[nH]1` [Compound 699]: the pEC50 was less than 6.00. Consider `CCc1cc(=O)oc2nc(OCc3ccc(C(F)(F)F)cn3)[nH]c(=O)c12` [Compound 545], for which the pEC50 was 6.00 to 7.00. `CCc1cc(=O)oc2nc(OCc3cccc(-c4cccnc4)c3)[nH]c(=O)c12` [Compound 563]: the pEC50 is 6.00 to 7.00. Turning to `CCOC(=O)CCc1cc(=O)oc2[nH]c(=O)[nH]c(=O)c12` [Compound 222], the negative logarithm of the EC50 (pEC50) is less than 6.00.

For the molecule `CCOc1nc2oc(=O)cc(CCC(C)C)c2c(=O)[nH]1` [Compound 686], the negative-log EC50 (pEC50) was 6.00 to 7.00. For `CCc1cc(=O)oc2nc(OCCOc3cc(C(F)(F)F)ccn3)[nH]c(=O)c12` [Compound 602], the negative logarithm of the EC50 (pEC50) was 6.00 to 7.00. The same measure, in the same setting: the figure for `CCCCc1cc(=O)oc2nc(OCC#CCOC)[nH]c(=O)c12` [Compound 670] is 7.00 to 12.00. Take `CCc1cc(=O)oc2nc(OCCOCc3csc4ccccc34)[nH]c(=O)c12` [Compound 662]: the pEC50 was 7.00 to 12.00. On to `CCc1cc(=O)oc2nc(OCc3ccccc3-c3cccc(Cl)c3)[nH]c(=O)c12` [Compound 554], for which the pEC50 is less than 6.00.

With `CCc1cc(=O)oc2nc(OCc3cc(C)ccc3C)[nH]c(=O)c12` [Compound 539], the pEC50 was 6.00 to 7.00. On the same count and under the same terms, the figure for `O=c1[nH]c(=O)c2c(CCCOC3CCC3)cc(=O)oc2[nH]1` [Compound 290] is 6.00 to 7.00; for `CCOC(=O)NOc1nc2oc(=O)cc(CCC(C)C)c2c(=O)[nH]1` [Compound 694] it is less than 6.00; for `CCCCc1c(-c2cccc(OC)c2)c(=O)oc2[nH]c(=O)[nH]c(=O)c12` [Compound 707] it is less than 6.00. As to `CCc1cc(=O)oc2nc(OCC3=Cc4ccccc4S3(=O)=O)[nH]c(=O)c12` [Compound 604], the pEC50 is 6.00 to 7.00.

For the molecule `CCCCc1cc(=O)oc2c1c(=O)[nH]c(=O)n2CC1CC1` [Compound 257], the negative logarithm of the EC50 (pEC50) was less than 6.00. Turning to `CC(C)CCc1cc(=O)oc2c1c(=O)[nH]c(=O)n2CC1CC1` [Compound 259], the pEC50 is less than 6.00. Turning to `CCc1cc(=O)oc2nc(OCC3CCCCN3C)[nH]c(=O)c12` (stereo not drawn) [Compound 594], the pEC50 is less than 6.00. Consider `CCc1cc(=O)oc2nc(OCc3ccc(-n4cccn4)cc3)[nH]c(=O)c12` [Compound 624], for which the pEC50 was 6.00 to 7.00.

On to `CCc1cc(=O)oc2nc(OCc3c(-c4ccccc4)noc3C)[nH]c(=O)c12` [Compound 526], for which the pEC50 was 6.00 to 7.00. With `CCc1cc(=O)oc2nc(OCc3ccccc3-c3ccc(F)c(C#N)c3)[nH]c(=O)c12` [Compound 584], the negative-log EC50 (pEC50) was 6.00 to 7.00.

As to `CCc1cc(=O)oc2nc(OCc3cc(C)nn3CC)[nH]c(=O)c12` [Compound 678], the negative-log EC50 (pEC50) was 6.00 to 7.00.

`O=c1[nH]c(=O)c2c(CCCOCc3ccccc3)cc(=O)oc2[nH]1` [Compound 264]: the pEC50 is less than 6.00.

Still in this assay, the particulars now being: NA EC50 camp (nM), CHO cells expressing recombinant human NAR; forskolin-stimulated cAMP.
As to `CCc1cc(=O)oc2nc(OCC#CC3CCCCC3)[nH]c(=O)c12` [Compound 638], the EC50 lay in the range of 100 to 1000 nM. For `CCc1cc(=O)oc2nc(OCc3ccc(-c4cncnc4)cc3F)[nH]c(=O)c12` [Compound 575], the 50% effective concentration (EC50) was 100 to 1000 nM.

As to `CCCC#CCOc1nc2oc(=O)cc(CC)c2c(=O)[nH]1` [Compound 557], the concentration giving a half-maximal response (EC50) was 0.001 to 100 nM. For `CCc1cc(=O)oc2nc(OCC#CC3CC3)[nH]c(=O)c12` [Compound 589], the EC50 fell in the range of 0.001 to 100 nM.

The assay is the same for the next values; noted with them: NA EC50 camp, inhibition of forskolin-stimulated cAMP accumulation, CHO cells expressing recombinant human NAR.
On to `CCc1cc(=O)oc2nc[nH]c(=O)c12` [Compound 807], for which the negative-log EC50 (pEC50) is less than 5.00.

The same assay, now with this note: inhibition of forskolin-stimulated cAMP accumulation, CHO cells expressing recombinant human NAR; read-out: NA EC50 camp.
On to `CCCCc1cc(=O)oc2[nH]c(=O)n(CC(F)F)c(=O)c12` [Compound 821], for which the pEC50 was 6.85. For the molecule `O=c1cc(CCCC2CC2)c2c(=O)[nH]c(CF)nc2o1` [Compound 741], the negative logarithm of the EC50 (pEC50) was 6.91.

In the case of `COn1c(=O)[nH]c2oc(=O)cc(CCC3CCCC3)c2c1=O` [Compound 772], the negative-log EC50 (pEC50) is 7.41. With `CCc1cc(=O)oc2nc(OCC#CC(C)OC)[nH]c(=O)c12` (stereo not drawn) [Compound 723], the negative-log EC50 (pEC50) is 6.53. On the same count and under the same terms, the figure for `CCCCCCc1cc(=O)oc2nc(CF)[nH]c(=O)c12` [Compound 755] is 6.54; for `O=c1[nH]c(=O)c2c(CCC3CCCCC3)cc(=O)oc2[nH]1` [Compound 124] it is 7.11; for `CCCCc1cc(=O)oc2[nH]c(=O)nc(OCF)c12` [Compound 788] it is 7.41.

In the case of `CCOC(=O)NOc1nc2oc(=O)cc(CCC3CCC3)c2c(=O)[nH]1` [Compound 691], the pEC50 is 7.32. Same read-out and setting: the figure for `CCCCC#CCOc1nc2oc(=O)cc(CCCC3CC3)c2c(=O)[nH]1` [Compound 719] is 6.82; for `CCCCc1cc(=O)oc2nc(CF)[nH]c(=O)c12` [Compound 809] it is 6.73. In the case of `CCc1cc(=O)n(C)c2[nH]c(=O)[nH]c(=O)c12` [Compound 808], the negative logarithm of the EC50 (pEC50) was less than 5.00.

With `O=c1cc(CCC2CC2)c2c(=O)[nH]c(CF)nc2o1` [Compound 753], the pEC50 was 6.64. Regarding `CCCCc1cc(=O)oc2[nH]c(=O)n(C(F)F)c(=O)c12` [Compound 816], the pEC50 is 6.54. Turning to `Cc1cc(=O)oc2nc(CF)[nH]c(=O)c12` [Compound 810], the negative logarithm of the EC50 (pEC50) is less than 5.00. As for `COn1c(=O)[nH]c(=O)c2c(CCC3CCCC3)cc(=O)oc21` [Compound 773], the negative logarithm of the EC50 (pEC50) was 7.31. For `CCn1c(=O)[nH]c2oc(=O)cc(CCC3CCCC3)c2c1=O` [Compound 781], the negative-log EC50 (pEC50) is 7.17. For `O=c1cc(CCCC2CC2)c2c(=O)n(C(F)F)c(=O)[nH]c2o1` [Compound 814], the negative logarithm of the EC50 (pEC50) was 6.79. On the same count and under the same terms, the figure for `COn1c(=O)[nH]c2oc(=O)cc(CCCC3CC3)c2c1=O` [Compound 774] is 7.55.

Broadly, the pEC50 is −log10 of the EC50, conventionally taken in molar units. By EC50 is commonly meant the midpoint of the concentration-response curve.
